Assay results as given in US20060019997A1, “Triazole compounds and their use as metabotropic glutamate receptor antagonists” (AstraZeneca AB, priority 2004, published 2006).

Biological target: T1, human mGluR5d (Homo sapiens, UniProt P41594)
T1 construct: expressed in transfected cells
Assay: FLIPR analysis of [Ca2+]i mobilization (Group I receptor antagonist activity)
Type: cell-based
Conditions: cells expressing human mGluR5d; antagonist block of agonist challenge
From the text: The pharmacological properties of the compounds of the invention can be analyzed using standard assays for functional activity. Examples of glutamate receptor assays are well known in the art as described in for example Aramori et al., Neuron 8:757 (1992), Tanabe et al., Neuron 8:169 (1992), Miller et al., J. Neuroscience 15: 6103 (1995), Balazs, et al., J. Neurochemistry 69:151 (1997). The methodology described in these publications is incorporated herein by reference. Conveniently, the compounds of the invention can be studied by means of an assay that measures the mobilization of intracellular calcium, [Ca^2+]i in cells expressing mGluR5. […]
(§1) FLIPR experiments were done using a laser setting of 0.800 W and a 0.4 second CCD camera shutter speed. […] After each addition of the compound, the fluorescence signal was sampled 50 times at 1 second intervals followed by 3 samples at 5 second intervals. Responses were measured as the peak height of the response within the sample period. […]
as §1, with “speed with excitation and emission wavelengths of 488 nm and 562 nm, respectively.” for “speed.”, “addition” for “addition of the compound,”

T1 sequence (P41594 21-942 isoform P41594-3 limits assumed): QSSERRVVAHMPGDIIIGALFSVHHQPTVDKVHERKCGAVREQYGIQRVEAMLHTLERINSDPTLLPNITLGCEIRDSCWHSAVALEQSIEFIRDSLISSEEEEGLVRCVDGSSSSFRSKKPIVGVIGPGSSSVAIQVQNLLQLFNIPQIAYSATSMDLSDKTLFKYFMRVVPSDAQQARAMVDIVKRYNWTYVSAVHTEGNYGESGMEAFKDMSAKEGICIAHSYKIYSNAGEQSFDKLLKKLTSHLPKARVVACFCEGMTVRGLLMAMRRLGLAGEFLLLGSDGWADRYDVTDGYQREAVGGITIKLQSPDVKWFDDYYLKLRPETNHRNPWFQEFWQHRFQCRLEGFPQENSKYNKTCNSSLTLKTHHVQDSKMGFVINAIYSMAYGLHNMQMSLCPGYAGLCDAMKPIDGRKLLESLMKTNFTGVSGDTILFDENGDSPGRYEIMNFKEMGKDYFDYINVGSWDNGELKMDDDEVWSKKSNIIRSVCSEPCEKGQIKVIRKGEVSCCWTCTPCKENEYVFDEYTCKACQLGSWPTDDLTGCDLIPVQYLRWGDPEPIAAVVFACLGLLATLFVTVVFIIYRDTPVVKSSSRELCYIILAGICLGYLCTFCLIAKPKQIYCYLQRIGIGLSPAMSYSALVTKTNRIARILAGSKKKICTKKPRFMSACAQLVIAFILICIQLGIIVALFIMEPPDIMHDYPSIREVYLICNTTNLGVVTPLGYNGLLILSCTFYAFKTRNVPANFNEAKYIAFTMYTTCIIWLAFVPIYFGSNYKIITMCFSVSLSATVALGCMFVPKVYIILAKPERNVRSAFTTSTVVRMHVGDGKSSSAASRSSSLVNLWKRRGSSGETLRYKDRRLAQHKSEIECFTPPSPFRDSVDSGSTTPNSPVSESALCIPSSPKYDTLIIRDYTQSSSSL

Row | SMILES | IC50
1 | Clc1cccc(-n2cc(CSc3nnc(-c4ccncc4)n3C3CC3)nn2)c1 [4-{5-[1-(3-Chloro-phenyl)-1H-[1,2,3]triazol-4-ylmethylsulfanyl]-4-cyclopropyl-4H-[1,2,4]triazol-3-yl}-pyridine] | 265 nM
2 | CC(Oc1nnc(-c2ccncc2)n1C)c1cnn(-c2cccc(Cl)c2)n1 (centres unmarked) [4-(5-{1-[2-(3-chlorophenyl)-2H-1,2,3-triazol-4-yl]ethoxy}-4-methyl-4H-1,2,4-triazol-3-yl)pyridine] | 27 nM
